Results published in publication PMC7038240 (Antimicrobial Agents and Chemotherapy, 2020).
Like-named read-outs stand apart in the source and are kept apart here.

How the values were obtained:
[1] = target: T1, CTX-M-15 (Escherichia coli, UniProt Q9EXV5); details: half-life of active-site occupancy
Procedure: (§5) A reversible two-step inhibition model was fit to the data.
(§6) Pseudo-first-order rate constants of enzyme inactivation (kobs) were determined in the presence of various inhibitor concentrations by fitting equation 2 to the time courses.(2) P=Vst+(V0−Vs)(1−e^−kt)/k where P is product, Vs is rate at steady state, t is time, V0 is initial velocity, and k is rate of inactivation. A plot of kobs versus the inhibitor concentrations generated a linear plot with a slope of (k2/Ki) and a y intercept of k−2 (equation 3). The reported values were corrected for the substrate concentration and the Km for each substrate-enzyme combination, as defined by the 1 + ([S]/Km) term in equation 4, where S is the substrate concentration, used to obtain the second-order rate constant k2/Ki and the off rate (k−2). The error values reported are standard errors from the fit.(3) kobs=k−2+(k2/Ki)[I]/[1+([S]/Km)]
(§7) The percentage of enzyme activity at each assay point was determined by comparison to the activity of the enzyme in the absence of inhibitor, and the recovery of enzymatic activity was fit to a single exponential with the associated standard deviation.

[2] = target: T2, KPC-2 (Klebsiella pneumoniae, UniProt Q9F663); details: half-life of active-site occupancy
Procedure: as §5, §6, §7

[3] = target: IMP-1 (Serratia marcescens, UniProt P52699); assay: Inhibition assay, nitrocefin substrate; details: class B
IMP-1, sequence (P52699 19-246 limits assumed): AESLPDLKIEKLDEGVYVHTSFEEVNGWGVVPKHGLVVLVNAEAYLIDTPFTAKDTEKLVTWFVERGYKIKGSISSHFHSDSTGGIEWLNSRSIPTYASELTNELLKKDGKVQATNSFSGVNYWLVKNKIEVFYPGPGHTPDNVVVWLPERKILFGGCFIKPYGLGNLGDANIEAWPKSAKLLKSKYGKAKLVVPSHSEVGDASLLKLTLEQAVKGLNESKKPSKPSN

[4] = target: T3, P99 AmpC (Enterobacter cloacae, UniProt P05364); assay: biochemical
T3 sequence (P05364 21-381): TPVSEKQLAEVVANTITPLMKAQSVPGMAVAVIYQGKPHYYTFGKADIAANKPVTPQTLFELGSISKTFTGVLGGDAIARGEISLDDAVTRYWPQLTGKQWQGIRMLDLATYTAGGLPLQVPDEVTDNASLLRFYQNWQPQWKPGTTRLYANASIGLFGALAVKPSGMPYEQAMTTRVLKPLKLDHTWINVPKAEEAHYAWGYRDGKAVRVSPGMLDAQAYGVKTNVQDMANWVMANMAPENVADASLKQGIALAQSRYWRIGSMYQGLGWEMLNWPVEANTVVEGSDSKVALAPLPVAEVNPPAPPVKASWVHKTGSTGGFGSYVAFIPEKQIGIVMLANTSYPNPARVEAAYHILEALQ
Procedure: as §5, §6, §7

[5] = target: VIM-2 (Escherichia coli, UniProt Q5U7L7); assay: Steady-state competitive inhibition, nitrocefin substrate
[6] = target: T1, CTX-M-15; assay: biochemical
Procedure: as §5, §6, §7

[7] = tested on: VIM-2 and NDM-1 metallo-β-lactamases; assay: Inhibition of VIM-2 and NDM-1 MBLs (modality, reversibility, range); details: up to 50 μM
[8] = target: T3, P99 AmpC; details: half-life of active-site occupancy
Procedure: as §5, §6, §7

[9] = tested on: E. coli DH5α producing individual β-lactamases; assay: Broth microdilution MIC in engineered strains (BLI fixed at 4 μg/ml); assay type: cell-based, Escherichia coli; details: panel of 34 strains
Procedure: The spectrum of antibacterial activity of cefepime-taniborbactam and the breadth of inhibitory activity of this next-generation cyclic boronate BLI were assessed in 34 engineered E. coli strains each overproducing an individual β-lactamase and directly compared to those of the clinically approved agent ceftazidime-avibactam. In this manner, the antibacterial activity of the BL-BLI combinations relative to that of the partnered cephalosporins alone provided a quantitative measure of β-lactam potentiation that directly reflects the levels of inhibition of β-lactamase function achieved by addition of BLI. The BLI concentration was fixed at 4 μg/ml, as described in Materials and Methods.
The isogenic strains were used to establish a spectrum of inhibitory activity against 34 β-lactamases that were engineered into E. coli DH5α cells carrying chromosomal AmpC (ESC-1), a non-ESBL enzyme unable to hydrolyze these third- or fourth-generation cephalosporins. […]. The DNA fragments containing the promoter, the signal sequence, and each β-lactamase-coding gene were synthesized and cloned into pTwist Chlor High Copy in DH5α at Twist Bioscience. The individual expression plasmids along with their GenBank accession numbers are listed in Table S2 in the supplemental material and below. The protein sequences of β-lactamases were obtained from the Beta-Lactamase DataBase (www.bldb.eu) ([47]). Expression of the β-lactamases was confirmed by verifying decreased susceptibility to example test antibiotics that are known substrates of the enzymes. E. coli DH5α carrying pTU501, which expressed only the TEM-1 signal sequence from the bla promoter, was used as a control. The plasmid sequences are available through GenBank (Table S2).
(§1) The in vitro antibacterial activity of the β-lactams alone or in combination with the BLIs was determined in cation-adjusted Mueller-Hinton broth (CAMHB) microdilution assays according to CLSI recommendations ([51]). […]. The inocula for the broth microdilution assays were prepared by the broth culture method ([51]). […]

[10] = target: NDM-1 (Klebsiella pneumoniae, UniProt C7C422); assay: Steady-state competitive inhibition, cefotaxime substrate
NDM-1, sequence (C7C422 29-270, looked up, species assumed): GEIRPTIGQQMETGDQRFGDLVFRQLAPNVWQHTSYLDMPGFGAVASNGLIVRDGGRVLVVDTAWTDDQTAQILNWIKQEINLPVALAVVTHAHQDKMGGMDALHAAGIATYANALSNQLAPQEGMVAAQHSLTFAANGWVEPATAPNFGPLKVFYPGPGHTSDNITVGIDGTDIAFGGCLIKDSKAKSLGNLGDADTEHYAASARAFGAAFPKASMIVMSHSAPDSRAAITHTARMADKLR

[11] = target: OXA-48 (Klebsiella pneumoniae, UniProt Q6XEC0); assay: Ki* determination, imipenem substrate
OXA-48, sequence (Q6XEC0 23-265, looked up, species assumed): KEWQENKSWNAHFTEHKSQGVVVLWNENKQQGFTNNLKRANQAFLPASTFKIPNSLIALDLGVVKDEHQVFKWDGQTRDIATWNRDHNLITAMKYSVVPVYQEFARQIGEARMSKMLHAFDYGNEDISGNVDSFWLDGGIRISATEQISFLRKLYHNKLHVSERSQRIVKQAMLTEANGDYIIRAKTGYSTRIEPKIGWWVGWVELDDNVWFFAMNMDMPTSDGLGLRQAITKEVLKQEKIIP
Procedure: as §6

[12] = tested on: P. aeruginosa; assay: microbe, parasite or virus in culture; assay type: cell-based; details: Pseudomonas aeruginosa, read-out: MIC
Source text: (§2) The antibacterial activity of cefepime-taniborbactam was compared to that of ceftazidime-avibactam, ceftolozane-tazobactam, and cefepime-tazobactam against a diverse panel of Enterobacterales and P. aeruginosa clinical isolates with defined β-lactamase subtypes (see Table S1 in the supplemental material). IMP-producing strains were excluded, as none of the BLI-protected cephalosporins inhibited IMP sufficiently to provide a clinically relevant rescue of the partner β-lactam, a characteristic also shared by approved BLI-protected carbapenems (meropenem-vaborbactam and imipenem-relebactam). […] The antibacterial activity of the cephalosporins alone was included to ascertain the level of potentiation by the partnered BLI. BLIs were tested at a fixed concentration of 4 μg/ml in all combinations except cefepime-tazobactam, where tazobactam was fixed at a concentration of 8 μg/ml ([38]). The collection comprised 143 clinical isolates collected from 2005 and 2018.
as §1

[13] = tested on: E. coli; assay: microbe, parasite or virus in culture; assay type: cell-based; details: Escherichia coli, read-out: MIC
Source text: as §2, §1

[14] = tested on: K. pneumoniae; assay: microbe, parasite or virus in culture; assay type: cell-based; details: Klebsiella pneumoniae, read-out: MIC
Source text: as §2, §1

[15] = target: SHV-5 (Klebsiella pneumoniae, UniProt P0A3M1); assay: Ki* determination, cefotaxime substrate
SHV-5, sequence (P0A3M1 22-286): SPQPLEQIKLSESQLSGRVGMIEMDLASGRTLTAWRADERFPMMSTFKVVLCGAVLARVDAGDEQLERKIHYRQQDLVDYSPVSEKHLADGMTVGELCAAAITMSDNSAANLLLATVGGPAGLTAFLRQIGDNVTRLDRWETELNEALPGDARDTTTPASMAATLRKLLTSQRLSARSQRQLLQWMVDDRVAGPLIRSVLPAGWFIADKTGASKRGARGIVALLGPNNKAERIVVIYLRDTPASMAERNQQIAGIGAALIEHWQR
Procedure: as §6

[16] = tested on: DrugMatrixScreen panel of pharmacological targets; assay: DrugMatrixScreen panel (binding, enzymatic, uptake assays; Eurofins/Panlabs); details: 100 μM
[17] = tested on: Enterobacterales clinical isolates; assay: MIC distributions in panels of clinical isolates (MIC50, MIC90, % susceptible); assay type: cell-based
Procedure: (§3) The antibacterial activity of the cephalosporins alone was included to ascertain the level of potentiation by the partnered BLI. BLIs were tested at a fixed concentration of 4 μg/ml in all combinations except cefepime-tazobactam, where tazobactam was fixed at a concentration of 8 μg/ml ([38]).
(§4) The in vitro antibacterial activity of the β-lactams alone or in combination with the BLIs was determined in cation-adjusted Mueller-Hinton broth (CAMHB) microdilution assays according to CLSI recommendations ([51]). […] The inocula for the broth microdilution assays were prepared by the broth culture method ([51]).

[18] = tested on: P. aeruginosa clinical isolates; assay: microbe, parasite or virus in culture; assay type: cell-based, Pseudomonas aeruginosa
Procedure: as §3, §4

[19] = tested on: E. coli, K. pneumoniae, and P. aeruginosa reference type isolates; assay: MIC against panel of seven reference type isolates; assay type: cell-based
Procedure: […]. This panel encompassed 3 E. coli, 2 K. pneumoniae, and 2 P. aeruginosa isolates and included four quality control (QC) isolates for broth microdilution ([37]). […]. Among the β-lactamase-producing Enterobacterales isolates, E. coli NCTC 13353 producing CTX-M-15 and K. pneumoniae BAA-1705 producing KPC-2 are routine QC isolates used for the testing of cefepime-taniborbactam ([37]). […].
as §1

[20] = target: T2, KPC-2; assay: biochemical
Procedure: as §5, §6, §7

[21] = tested on: serine β-lactamases (SBLs); assay: Kinetic parameters and Ki, ranges over serine β-lactamases; details: CTX-M-15, P99 AmpC, and KPC-2
Procedure: as §5, §6, §7

T1 sequence (Q9EXV5 29-291, species assumed): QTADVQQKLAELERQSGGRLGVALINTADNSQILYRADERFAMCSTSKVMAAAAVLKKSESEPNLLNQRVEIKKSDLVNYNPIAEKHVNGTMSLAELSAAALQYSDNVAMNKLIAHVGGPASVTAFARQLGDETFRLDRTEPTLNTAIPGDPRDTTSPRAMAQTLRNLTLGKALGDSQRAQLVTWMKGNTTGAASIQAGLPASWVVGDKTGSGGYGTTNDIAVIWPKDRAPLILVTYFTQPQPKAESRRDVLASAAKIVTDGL
T2 sequence (Q9F663 25-293, looked up, species assumed): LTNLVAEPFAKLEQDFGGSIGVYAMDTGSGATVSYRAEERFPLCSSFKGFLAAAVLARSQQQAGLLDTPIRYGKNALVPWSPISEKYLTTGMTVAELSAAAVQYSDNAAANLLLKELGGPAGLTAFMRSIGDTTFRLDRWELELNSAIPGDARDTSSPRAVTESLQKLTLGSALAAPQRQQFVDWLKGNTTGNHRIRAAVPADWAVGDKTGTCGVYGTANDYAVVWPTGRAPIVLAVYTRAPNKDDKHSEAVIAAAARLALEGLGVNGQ

SMILES: NC(=O)[C@@H]1CC[C@@H]2CN1C(=O)N2OS(=O)(=O)O [Avibactam]
- t1/2 [1]: 29 ± 1 min
- t1/2 [2]: 66 ± 4 min
- Ki [3]: > 30000 nM
- Ki [4]: 13 ± 0.3 nM
- Ki [5]: > 30000 nM
- Ki [6]: 11 ± 1 nM
- inhibition of MBLs [7]: no significant inhibition
- t1/2 [8]: 249 ± 19 min
- modal potentiation of partner cephalosporin MIC [9]: 64 fold
- Ki [10]: > 30000 nM

SMILES: NCCN[C@H]1CC[C@H](CC(=O)N[C@H]2Cc3cccc(C(=O)O)c3OB2O)CC1 [Taniborbactam]
- t1/2 [1]: 34 ± 2 min
- t1/2 [2]: 105 ± 5 min
- Ki [11]: 350 ± 7 nM
- MIC ([12]; ATCC27853, P. aeruginosa ATCC 27853, PDC-5): 1020 µg/mL
- MIC ([12]; P. aeruginosa CDC-0457, VIM): 1020 µg/mL
- MIC ([13]; ATCC25922, E. coli ATCC 25922, enzyme content None): 512 µg/mL
- MIC ([13]; E. coli CDC-0452, NDM): 512 µg/mL
- MIC ([13]; NCTC13353, E. coli NCTC 13353, CTX-M-15): 512 µg/mL
- MIC ([14]; ATCC13883, K. pneumoniae ATCC 13883, enzyme content None): 512 µg/mL
- MIC ([14]; BAA1705, K. pneumoniae BAA 1705, KPC-2): 1020 µg/mL
- Ki [3]: ≥ 30000 nM
- Ki [4]: 2 ± 0.3 nM
- Ki [15]: 3 ± 0.2 nM
- inhibition, off-target ([16]; 128 of 129 in vitro assays): ≤ 23%
- inhibition ([16]; the one exception, a β-lactamase): > 50%
- Ki [5]: 19 ± 1 nM
- Ki [6]: 17 ± 2 nM
- MIC90 [17]: 1 µg/mL
- MIC90 ([18]; Pseudomonas aeruginosa, all 41 isolates of P. aeruginosa): 4 µg/mL
- MIC [19]: ≥ 512 µg/mL
- antibacterial activity alone ([19]; taniborbactam alone): lacks antibacterial activity
- t1/2 [8]: 30 ± 3 min
- Ki [20]: 4 ± 1 nM
- modal potentiation of partner cephalosporin MIC [9]: 512 fold

SMILES: O=C(O)C[C@@H]1CC[C@H](NC(=O)Cc2cccs2)B(O)O1 [Vaborbactam]
- t1/2 [1]: 5 ± 0.2 min
- second-order rate constants (k2/Ki), order of magnitude [21]: ~10^3 M^−1 s^−1
- t1/2 [2]: 21 ± 2 min
- Ki [11]: 350 ± 7 nM
- Ki [3]: > 30000 nM
- Ki [4]: 53 ± 4 nM
- koff [4]: 0.00037 ± 3e-05 s⁻¹
- kinact/KI ([4]; pH 7, read-out: k2/Ki): 1800 ± 100 M⁻¹ s⁻¹
- Ki [5]: > 30000 nM
- Ki [6]: 158 ± 6 nM
- koff [6]: 0.0023 ± 9e-05 s⁻¹
- kinact/KI ([6]; pH 7, read-out: k2/Ki): 1100 ± 100 M⁻¹ s⁻¹
- inhibition of MBLs [7]: no significant inhibition
- t1/2 [8]: 32 ± 3 min
- Ki [20]: 22 ± 2 nM
- koff [20]: 0.00054 ± 5e-05 s⁻¹
- kinact/KI ([20]; pH 7, read-out: k2/Ki): 1200 ± 100 M⁻¹ s⁻¹
- Ki [10]: > 30000 nM

SMILES: C[C@]1(Cn2ccnn2)[C@H](C(=O)O)N2C(=O)C[C@H]2S1(=O)=O [tazobactam]
- fold reduction of cefepime MIC90 by addition of BLI ([18]; 14 isolates, subdivision 3): 2 fold
- fold reduction of ceftolozane MIC90 by addition of BLI ([18]; 14 isolates, subdivision 3): 4 fold
